# According to patent US20250154141A1 (University of Florida Research Foundation, Incorporated, priority 2021, published 2025):
# Read-outs that look alike come from different tables or passages of the source.
# What was measured:
# Format in all cases: cell-based
# RS4; 11 = experiment: Cell viability assay (MTS) in RS4; 11 cells; design: Anti-Cancer Activity IC50 (48 hr) RS4; 11: scale not given here; details: for IC50: Homo sapiens
# Experimental: (§1) Acute lymphoblastic leukemia cells (MOLT-4 and RS4; 11) were incubated with increasing concentrations of Bcl-xL degraders for 48 h. Cell viability was measured by tetrazolium-based MTS assay.
# MOLT-4 = experiment: Cell viability assay (MTS) in MOLT-4 cells; details: Homo sapiens
# Experimental: as §1
# human platelets = experiment: Platelet toxicity assay (MTS viability); details: for IC50: Homo sapiens, Platelet, 48 h, human platelets, read-out: Platelets 48 h IC50
# Experimental: Platelet-rich plasma (PRP) was purchased from Life South Community Blood Centers (Gainesville, FL, USA). PRP was transferred into a 50 mL tube containing 5 mL of the acid citrate buffer (Cat. No. sc-214744, Santa Cruz Biotechnology). To prevent clotting, prostaglandin E1 (PGE1, Cat. No. sc-201223A, Santa Cruz Biotechnology, Dallas, TX, USA) and apyrase (Cat. No. A6237, Sigma-Aldrich, St. Louis, MO, USA) were added to final concentrations of […] and 0.2 U/mL, respectively. After gently mixing the solution, platelets were pelleted by centrifugation at 1200 g for 10 min without break. Pelleted platelets were gently washed without disturbing platelets using 2 mL of HEPES Tyrode's buffer (Cat. No. PY-921WB, Boston BioProducts, Ashland, MA, USA) containing […] PGE1 and 0.2 U/mL apyrase. After washing, pellets were gently suspended in 10 mL of HEPES Tyrode's buffer containing […] PGE1 and 0.2 U/mL apyrase. Then, the platelet number was counted using a HEMAVET 950FS hematology analyzer (Drew Scientific, Inc., Oxford, CT, USA). For viability assays, the platelet number was adjusted to 2×10^8/mL in HEPES Tyrode's buffer containing […] PGE1 and 0.2 U/mL apyrase. Each treatment was given in 2 mL of the platelet suspension in 15 mL polypropylene tubes. The tubes were placed on a rotating platform at room temperature, and the viability of platelets was measured after 48 h treatment by using the MTS reagent (Cat. No. G1111, Promega, Madison, WI, USA). The data were analyzed by the GraphPad Prism 7 software for the calculation of IC50 values.
# Bcl-2 = Bcl-2 (Homo sapiens, UniProt P10415); experiment: Protein degradation assay in Jurkat cells (Western blot), Bcl-2; design: endogenous in cells; host or cells: Jurkat cells; details: FIG. 1, 16 hours
# Experimental: (§2) Jurkat cells and human platelets were incubated with increasing concentrations of test compounds for 16 h. The cells were harvested and lysed in RIPA lysis buffer supplemented with protease and phosphatase inhibitor cocktails. An equal amount of protein ([…]) was resolved on a pre-cast 4-20% SDS-PAGE gel. Proteins were subsequently transferred to NOVEX PVDF membranes by electrophoresis. The membranes were blocked in blocking buffer (5% non-fat dry milk in TBS-T), and incubated with primary antibodies (at optimized concentrations) overnight at 4° C. After three washings in TBS-T, the membranes were incubated with an appropriate FIRP-conjugated secondary antibody for 1 h at room temperature. After extensive washing for three times, the proteins of interest was detected with ECL western blotting detection reagents and recorded with autoradiography (Pierce Biotech, Rockford, IL, USA). The primary antibodies for Bcl-xL (Cat #2762), Bcl-2 (Cat #2872), Mcl-1 (Cat #5453) and j-actin (Cat #4970) were purchased from Cell Signaling Technology. The relative band intensity was measured using ImageJ software and normalized to β-actin.
# Bcl-xL = Bcl-xL (Homo sapiens, UniProt Q07817); experiment: Protein degradation assay in Jurkat cells (Western blot), Bcl-xL; design: endogenous in cells; host or cells: Jurkat cells; details: FIG. 1, 16 hours
# Experimental: as §2
# [1] = RS4-11, Table 2, 48 hr, MTS, read-out: Anti-Cancer Activity IC50 (48 hr) RS4, 11
# [2] = RS4-11, Table 5, 48 h, read-out: RS4 48 h IC50
# [3] = MOLT-4, Table 2, 48 hr, MTS, read-out: Anti-Cancer Activity IC50 (48 hr) MOLT-4
# [4] = MOLT-4, Table 3, 48 h, mean of two independent experiments in triplicates, read-out: MOLT-4 48 h IC50
# [5] = Table 3, mean of two independent experiments in triplicates
# [6] = Table 3, ratio of platelet IC50 to MOLT-4 IC50
# [7] = MOLT-4, Table 5, 48 h, read-out: MOLT-4 48 h IC50
# [8] = RS4-11, Table 4, 48 h, read-out: RS4 48 h IC50
# [9] = MOLT-4, Table 4, 48 h, read-out: MOLT-4 48 h IC50
# Sequence of Bcl-xL (Q07817 whole entry): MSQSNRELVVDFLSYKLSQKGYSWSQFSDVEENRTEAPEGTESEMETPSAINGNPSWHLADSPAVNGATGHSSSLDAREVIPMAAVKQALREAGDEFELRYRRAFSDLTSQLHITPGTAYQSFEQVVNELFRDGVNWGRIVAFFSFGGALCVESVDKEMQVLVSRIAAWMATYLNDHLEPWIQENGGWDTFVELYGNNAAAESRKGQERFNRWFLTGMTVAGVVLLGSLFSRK
# Sequence of Bcl-2 (P10415 whole entry): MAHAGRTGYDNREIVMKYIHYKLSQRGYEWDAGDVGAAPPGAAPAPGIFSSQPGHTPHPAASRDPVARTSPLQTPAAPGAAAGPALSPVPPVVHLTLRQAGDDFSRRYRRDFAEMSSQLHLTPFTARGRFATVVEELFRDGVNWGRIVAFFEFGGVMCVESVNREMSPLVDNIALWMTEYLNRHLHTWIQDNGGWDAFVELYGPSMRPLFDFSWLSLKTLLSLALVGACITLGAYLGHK
Structure (SMILES),IC50 (RS4; 11; [1]),IC50 (RS4; 11; [2]),IC50 (MOLT-4; [3]),IC50 (MOLT-4; [4]),IC50 (human platelets; [5]),IC50 (human platelets; Table 5),Platelets/MOLT-4 IC50 Fold change (human platelets; [6]),also measured
Cc1ncsc1-c1ccc([C@H](C)NC(=O)[C@@H]2C[C@@H](O)CN2C(=O)[C@@H](NC(=O)CCCCC(=O)N2CCC(C3CCN(CC4(C)CCC(c5ccc(Cl)cc5)=C(CN5CCN(c6ccc(C(=O)NS(=O)(=O)c7ccc(N[C@H](CCN8C[C@H]9C[C@@H]8CO9)CSc8ccccc8)c(S(=O)(=O)C(F)(F)F)c7)cc6)CC5)C4)CC3)CC2)C(C)(C)C)cc1 (stereo partly shown) [Compound 69],< 20 nM,3.7 nM,< 20 nM,–,–,157 nM,–,IC50 (MOLT-4; [7]): 1.9 nM
"Cc1ncsc1-c1ccc([C@H](C)NC(=O)[C@@H]2C[C@@H](O)CN2C(=O)[C@@H](NC(=O)CCCCCNC(=O)c2ccc(N3CCN(CC4(C)CCC(c5ccc(Cl)cc5)=C(CN5CCN(c6ccc(C(=O)NS(=O)(=O)c7ccc(N[C@H](CCN8CCOCC8)CSc8ccccc8)c(S(=O)(=O)C(F)(F)F)c7)cc6)CC5)C4)CC3)cc2)C(C)(C)C)cc1 (stereo partly drawn) [Compound 12, (2S,4R)-1-((2S)-2-(6-(4-(4-((4′-chloro-4-methyl-6-((4-(4-(((4-(((R)-4-morpholino-1-(phenylthio)butan-2-yl)amino)-3-((trifluoromethyl)sulfonyl)phenyl)sulfonyl)carbamoyl)phenyl)piperazin-1-yl)methyl)-2,3,4,5-tetrahydro-[1,1′-biphenyl]-4-yl)methyl)piperazin-1-yl)benzamido)hexanamido)-3,3-dimethylbutanoyl)-4-hydroxy-N—((S)-1-(4-(4-methylthiazol-5-yl)phenyl)ethyl)pyrrolidine-2-carboxamide]",20 to 100 nM,–,< 20 nM,17.5 nM,2160 nM,–,123,–
Cc1ncsc1-c1ccc([C@H](C)NC(=O)[C@@H]2C[C@@H](O)CN2C(=O)[C@@H](NC(=O)CCCCCCC(=O)N2CCN(CC3(C)CCC(c4ccc(Cl)cc4)=C(CN4CCN(c5ccc(C(=O)NS(=O)(=O)c6ccc(N[C@H](CCN7CCOCC7)CSc7ccccc7)c(S(=O)(=O)C(F)(F)F)c6)cc5)CC4)C3)CC2)C(C)(C)C)cc1 (stereo partly shown) [PP18319C8],–,–,–,–,–,–,–,"IC50 (RS4; 11; [8]): 18.7 nM; IC50 (MOLT-4; [9]): 17.4 nM; IC50 (human platelets; Table 4): 1640 nM; PLT/MOLT-4 IC50 Fold Change (human platelets; Table 4, ratio of platelet IC50 to MOLT-4 IC50): 94"
Cc1ncsc1-c1ccc([C@H](C)NC(=O)[C@@H]2C[C@@H](O)CN2C(=O)[C@@H](NC(=O)CN2[C@@H]3CC[C@H]2CN(CC(=O)N2CCN(CC4(C)CCC(c5ccc(Cl)cc5)=C(CN5CCN(c6ccc(C(=O)NS(=O)(=O)c7ccc(N[C@H](CCN8CCOCC8)CSc8ccccc8)c(S(=O)(=O)C(F)(F)F)c7)cc6)CC5)C4)CC2)C3)C(C)(C)C)cc1 (stereo partly shown) [Compound 32],–,–,–,–,–,–,–,"IC50 (RS4; 11; RS4-11, 48 h, read-out: Anti-Cancer Activity IC50 (48 hr) RS4, 11): < 20 nM; degradation of BCL-2 by Western blotting analysis (Bcl-2): exemplary degradation; degradation of BCL-XL by Western blotting analysis (Bcl-xL): exemplary degradation; IC50 (MOLT-4; MOLT-4, 48 h, read-out: Anti-Cancer Activity IC50 (48 hr) MOLT-4): < 20 nM"

# Further lines, with some results ahead:
IC50 (RS4; 11; [1]),IC50 (RS4; 11; [2]),IC50 (MOLT-4; [3]),IC50 (MOLT-4; [4]),Structure (SMILES),IC50 (human platelets; [5]),IC50 (human platelets; Table 5),Platelets/MOLT-4 IC50 Fold change (human platelets; [6]),also measured
< 20 nM,8.4 nM,< 20 nM,14.3 nM,"Cc1ncsc1-c1ccc([C@H](C)NC(=O)[C@@H]2C[C@@H](O)CN2C(=O)[C@@H](NC(=O)CCCCCCC(=O)N2CCN(CC3(C)CCC(c4ccc(Cl)cc4)=C(CN4CCN(c5ccc(C(=O)NS(=O)(=O)c6ccc(N[C@H](CCN7CCCCC7)CSc7ccccc7)c([N+](=O)[O-])c6)cc5)CC4)C3)CC2)C(C)(C)C)cc1 (stereo partly drawn) [Compound 39, (2S,4R)-1-((2S)-2-(8-(4-((4′-chloro-4-methyl-6-((4-(4-(((3-nitro-4-(((R)-1-(phenylthio)-4-(piperidin-1-yl)butan-2-yl)amino)phenyl)sulfonyl)carbamoyl)phenyl)piperazin-1-yl)methyl)-2,3,4,5-tetrahydro-[1,1′-biphenyl]-4-yl)methyl)piperazin-1-yl)-8-oxooctanamido)-3,3-dimethylbutanoyl)-4-hydroxy-N—((S)-1-(4-(4-methylthiazol-5-yl)phenyl)ethyl)pyrrolidine-2-carboxamide]",4570 nM,4570 nM,319,–
< 20 nM,–,20 to 100 nM,38.1 nM,"Cc1ncsc1-c1ccc([C@H](C)NC(=O)[C@@H]2C[C@@H](O)CN2C(=O)[C@@H](NC(=O)CCCCCCC(=O)N2CCN(CC3(C)CCC(c4ccc(Cl)cc4)=C(CN4CCN(c5ccc(C(=O)NS(=O)(=O)c6ccc(N[C@H](CCN(C)CCO)CSc7ccccc7)c([N+](=O)[O-])c6)cc5)CC4)C3)CC2)C(C)(C)C)cc1 (stereo partly drawn) [Compound 41, (2S,4R)-1-((2S)-2-(8-(4-((4′-chloro-6-((4-(4-(((4-(((R)-4-((2-hydroxyethyl)(methyl)amino)-1-(phenylthio)butan-2-yl)amino)-3-nitrophenyl)sulfonyl)carbamoyl)phenyl)piperazin-1-yl)methyl)-4-methyl-2,3,4,5-tetrahydro-[1,1′-biphenyl]-4-yl)methyl)piperazin-1-yl)-8-oxooctanamido)-3,3-dimethylbutanoyl)-4-hydroxy-N—((S)-1-(4-(4-methylthiazol-5-yl)phenyl)ethyl)pyrrolidine-2-carboxamide]",4900 nM,–,128,–
< 20 nM,–,< 20 nM,–,Cc1ncsc1-c1ccc([C@H](C)NC(=O)[C@@H]2C[C@@H](O)CN2C(=O)[C@@H](NC(=O)CCCCCCC(=O)N2CCN(C[C@]3(C)CCC(c4ccc(Cl)cc4)=C(CN4CCN(c5ccc(C(=O)NS(=O)(=O)c6ccc(N[C@H](CCN(C)CCO)CSc7ccccc7)c(S(=O)(=O)C(F)(F)F)c6)cc5)CC4)C3)CC2)C(C)(C)C)cc1 [Compound 62],–,–,–,IC50 (RS4; 11; [8]): < 7 nM; IC50 (MOLT-4; [9]): 21 nM; IC50 (human platelets; Table 4): > 10000 nM
–,7 nM,< 20 nM,–,"Cc1ncsc1-c1ccc([C@H](C)NC(=O)[C@@H]2C[C@@H](O)CN2C(=O)[C@@H](NC(=O)CCCCCCC(=O)N2CCN(CC3(C)CCC(c4ccc(Cl)cc4)=C(CN4CCN(c5ccc(C(=O)NS(=O)(=O)c6ccc(N[C@H](CCN7CCC7)CSc7ccccc7)c([N+](=O)[O-])c6)cc5)CC4)C3)CC2)C(C)(C)C)cc1 (stereo partly drawn) [Compound 37, (2S,4R)-1-((2S)-2-(8-(4-((6-((4-(4-(((4-(((R)-4-(azetidin-1-yl)-1-(phenylthio)butan-2-yl)amino)-3-nitrophenyl)sulfonyl)carbamoyl)phenyl)piperazin-1-yl)methyl)-4′-chloro-4-methyl-2,3,4,5-tetrahydro-[1,1′-biphenyl]-4-yl)methyl)piperazin-1-yl)-8-oxooctanamido)-3,3-dimethylbutanoyl)-4-hydroxy-N—((S)-1-(4-(4-methylthiazol-5-yl)phenyl)ethyl)pyrrolidine-2-carboxamide]",–,4620 nM,–,"Anti-Cancer Activity IC50 (48 hr) RS4; 11 (RS4; 11; Table 2, 48 hr, MTS): + +; IC50 (MOLT-4; [7]): 20 nM"
